Test results taken from ChEMBL document CHEMBL1201862, “PubChem BioAssay data set” (2004).
Each block holds one compound with its values, some of them ahead of it. Activity calls are given as the source filed them.

Assays:
[1] = biological target: T1, Orexin/Hypocretin receptor type 1 (Homo sapiens, UniProt O43613); test: (§1) Fluorescence-based cell-based high throughput dose response assay for antagonists of the orexin 1 receptor (OX1R; HCRTR1). [Related pubchem assays (depositor defined):AID434989, AID435008, AID463079, AID485270, AID492963, AID492964, AID492965, AID493232, AID504717, AID504718]; format: functional
[2] = (§2) Counterscreen for antagonists of the orexin 1 receptor (OX1R; HCRTR1): Fluorescence-based cell-based high throughput dose response assay to identify antagonists of the parental CHO cell line. [Related pubchem assays (depositor defined):AID434989, AID435008, AID463079, AID485270, AID492963, AID492964, AID492965, AID493232, AID504699, AID504701]; format: functional
Orexin receptor type 2 [3] = biological target: T2, Orexin receptor type 2 (Homo sapiens, UniProt O43614); test: Counterscreen assay for antagonists of the orexin 1 receptor (OX1R; HCRTR1): Homogeneous Time Resolved Fluorescence (HTRF)-based cell-based dose response assay for antagonists of the orexin 2 receptor (OX2R; HCRTR2), run by assay provider.; format: functional
[4] = biological target: T1, Orexin/Hypocretin receptor type 1; test: as §1, with “Homogeneous Time Resolved Fluorescence (HTRF)-based” for “Fluorescence-based”; format: functional
CHO-K1 = test: as §2, with “Homogeneous time resolved fluorescence (HTRF)-based” for “Fluorescence-based”, “cell-based” for “cell-based high throughput”, “CHO-K1” for “CHO”; format: functional; conditions: Cricetulus griseus;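 also: potency for inhibition of ATP-stimulated IP1 production as antagonists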
Orexin receptor type 2 [5] = biological target: T2, Orexin receptor type 2; test: Counterscreen assay for antagonists of the orexin 1 receptor (OX1R; HCRTR1): Fluorescence-based cell-based dose response assay for antagonists of the orexin 2 receptor (OX2R; HCRTR2), run by assay provider.; format: functional
[6] = A cell-based HTS for delayed death inhibitors of the malarial parasite plastid Measured in Microorganism System Using Plate Reader - 2126-02_Inhibitor_Dose_DryPowder_Activity.; format: functional, organism-based
[7] = A cell-based HTS for delayed death inhibitors of the malarial parasite plastid Measured in Microorganism System Using Plate Reader - 2126-01_Inhibitor_Dose_DryPowder_Activity.; format: functional, organism-based
LIM domain kinase 1 = LIM domain kinase 1 (Homo sapiens, UniProt P53667); test: Navigating the Kinome. Panel member name: LIMK1; format: functional
[8] = biological target: Serine/threonine-protein kinase pim-1 (Homo sapiens, UniProt P11309); format: functional
[9] = biological target: Serine/threonine-protein kinase MRCK alpha (Homo sapiens, UniProt Q5VT25); format: functional
[10] = biological target: Serine/threonine-protein kinase PLK1 (Homo sapiens, UniProt P53350); format: functional;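 also: PLK1 measured as one member of a kinome-wide profiling panel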
[11] = biological target: Casein kinase II subunit alpha (Homo sapiens, UniProt P68400); format: functional
[12] = biological target: Ribosomal protein S6 kinase beta-1 (Homo sapiens, UniProt P23443); format: functional;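 also: measured as one member of a kinome-wide profiling panel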
[13] = biological target: cAMP-dependent protein kinase catalytic subunit alpha (Homo sapiens, UniProt P17612); format: functional
Ephrin type-A receptor 2 = Ephrin type-A receptor 2 (Homo sapiens, UniProt P29317); format: functional;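 also: EPHA2 tested as one member of a kinome-wide kinase panel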
[14] = biological target: MAP kinase-activated protein kinase 2 (Homo sapiens, UniProt P49137); format: functional;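 also: measured as one member of a kinome-wide kinase panel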
[15] = biological target: Serine/threonine-protein kinase PAK 4 (Homo sapiens, UniProt O96013); format: functional;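 also: value obtained within a kinome profiling panel in which PAK4 was one of the panel members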
[16] = biological target: Cyclin-dependent kinase 2 (Homo sapiens, UniProt P24941); format: functional;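 also: CDK2 measured as one member of a broad kinome profiling panel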
[17] = biological target: Serine/threonine-protein kinase Chk2 (Homo sapiens, UniProt O96017); format: functional;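 also: CHEK2 entry within a kinome-wide screening panel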
[18] = biological target: Mast/stem cell growth factor receptor Kit (Homo sapiens, UniProt P10721); format: functional;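 also: KIT entry within a kinase panel assay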
[19] = biological target: Serine/threonine-protein kinase PLK3 (Homo sapiens, UniProt Q9H4B4); format: functional
[20] = biological target: Serine/threonine-protein kinase Chk1 (Homo sapiens, UniProt O14757); format: functional;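 also: measured as one member of a kinome-wide kinase profiling panel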
Aurora kinase A = Aurora kinase A (Homo sapiens, UniProt O14965); format: functional;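 also: value from the Navigating the Kinome kinase panel profiling, panel entry STK6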
[21] = biological target: RAC-alpha serine/threonine-protein kinase (Homo sapiens, UniProt P31749); format: functional;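 also: AKT1 affinity measured as one member of a kinome-wide kinase profiling panel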
[22] = biological target: RAC-gamma serine/threonine-protein kinase (Homo sapiens, UniProt Q9Y243); format: functional
[23] = biological target: Protein kinase C zeta type (Homo sapiens, UniProt Q05513); format: functional;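 also: measured as one member of a broad kinase profiling panel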
[24] = biological target: Glycogen synthase kinase-3 beta (Homo sapiens, UniProt P49841); format: functional;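 also: value comes from a broad kinome profiling panel, with GSK3B as the panel member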
[25] = biological target: Cyclin-dependent kinase 1 (Homo sapiens, UniProt P06493); format: functional;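 also: Kinome-wide panel profiling, with the target listed as panel member CDC2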
[26] = biological target: MAP/microtubule affinity-regulating kinase 3 (Homo sapiens, UniProt P27448); format: functional;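 also: MARK3 affinity measured as one member of a kinome panel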
[27] = biological target: 5'-AMP-activated protein kinase catalytic subunit alpha-1 (Homo sapiens, UniProt Q13131); format: functional
[28] = biological target: Ribosomal protein S6 kinase alpha-3 (Homo sapiens, UniProt P51812); format: functional;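 also: measured within a kinome-wide profiling panel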
[29] = biological target: Protein kinase C gamma type (Homo sapiens, UniProt P05129); format: functional
[30] = biological target: Protein kinase C delta type (Homo sapiens, UniProt Q05655); format: functional
[31] = biological target: Protein disulfide-isomerase (Homo sapiens, UniProt P07237); test: inhibition of PDI-driven insulin aggregation – biochemical, turbidity, absorbance, cherry-picked samples, dose response (AID 602350); format: functional
Aurora kinase B = Aurora kinase B (Homo sapiens, UniProt Q96GD4); format: functional
[32] = biological target: Vascular endothelial growth factor receptor 2 (Homo sapiens, UniProt P35968); format: functional
[33] = biological target: Sphingosine 1-phosphate receptor 3 (Homo sapiens, UniProt Q99500); test: Late-stage fluorescence-based dose-response cell-based counterscreen assay to identify agonists of the Sphingosine 1-Phosphate Receptor 4 (S1P4): Sphingosine 1-Phosphate Receptor 3 (S1P3) agonist assay Set 2.; format: functional
[34] = biological target: Sphingosine 1-phosphate receptor 2 (Homo sapiens, UniProt O95136); test: activation of human S1P2 receptor – cell-based, fluorescence, set 2, counter-screen for S1P4 agonist project, late-stage follow-up (AID 504873); format: functional
[35] = biological target: Sphingosine 1-phosphate receptor 5 (Homo sapiens, UniProt Q9H228); test: activation of human S1P5 receptor – cell-based, fluorescence, set 2, counter-screen for S1P4 agonist project, late-stage follow-up (AID 504867); format: functional
[36] = biological target: Sphingosine 1-phosphate receptor 1 (Homo sapiens, UniProt P21453); test: Late-stage fluorescence-based dose-response cell-based counterscreen assay to identify agonists of the Sphingosine 1-Phosphate Receptor 4 (S1P4): Sphingosine 1-Phosphate Receptor 1 (S1P1) agonist assay Set 2.; format: functional
[37] = biological target: Mitogen-activated protein kinase 8 (Homo sapiens, UniProt P45983); format: functional;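 also: value comes from one member of a kinome-wide kinase profiling panel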
[38] = biological target: Serine/threonine-protein kinase D3 (Homo sapiens, UniProt O94806); format: functional;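 also: determined within a kinase panel screen, with PRKCN as the panel member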
[39] = biological target: T3, DNA dC->dU-editing enzyme APOBEC-3G (Homo sapiens, UniProt Q9HC16); test: SAR analysis of small molecule inhibitors of APOBEC3G DNA Deaminase via a fluorescence-based single-stranded DNA deaminase assay - Set 2.; format: functional; conditions: read-out: IC50_Mean
[40] = biological target: T4, DNA dC->dU-editing enzyme APOBEC-3A (Homo sapiens, UniProt P31941); test: SAR analysis of small molecule inhibitors of APOBEC3A DNA Deaminase via a fluorescence-based single-stranded DNA deaminase assay.; format: functional; conditions: read-out: IC50_Mean
[41] = biological target: T4, DNA dC->dU-editing enzyme APOBEC-3A; test: SAR analysis of small molecule inhibitors of APOBEC3A DNA Deaminase via a fluorescence-based single-stranded DNA deaminase assay - Set 2.; format: functional; conditions: read-out: IC50_Mean
[42] = biological target: T3, DNA dC->dU-editing enzyme APOBEC-3G; test: inhibition of APOBEC3G ssDNA deamination – biochemical, fluorescence, single-stranded DNA substrate, SAR follow-up (AID 602136); format: functional; conditions: read-out: IC50_Mean
[43] = biological target: Multidrug resistance protein CDR2 (Candida albicans (strain SC5314 / ATCC MYA-2876) (Yeast), UniProt P78595); test: inhibition of Nile Red efflux via Candida CDR2 – S. cerevisiae AD1-8u, singleplex, Cherry Pick1 hits, dose response (AID 588604); format: functional
[44] = biological target: Receptor tyrosine-protein kinase erbB-4 (Homo sapiens, UniProt Q15303); format: functional;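 also: ERBB4 member of a kinome-wide kinase profiling panel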
[45] = biological target: 3-phosphoinositide-dependent protein kinase 1 (Homo sapiens, UniProt O15530); format: functional;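 also: value comes from the Navigating the Kinome panel, PDPK1 member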
[46] = biological target: Tyrosine-protein kinase Lyn (Homo sapiens, UniProt P07948); format: functional;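 also: lyn as one member of a kinase panel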
[47] = biological target: Tyrosine-protein kinase Blk (Homo sapiens, UniProt P51451); format: functional;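 also: obtained as one member of a kinome-wide kinase assay panel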
[48] = biological target: Inhibitor of nuclear factor kappa-B kinase subunit beta (Homo sapiens, UniProt O14920); format: functional
[49] = biological target: Fibroblast growth factor receptor 3 (Homo sapiens, UniProt P22607); format: functional
[50] = biological target: Fibroblast growth factor receptor 1 (Homo sapiens, UniProt P11362); format: functional

Sequence of Serine/threonine-protein kinase pim-1 (P11309 whole entry): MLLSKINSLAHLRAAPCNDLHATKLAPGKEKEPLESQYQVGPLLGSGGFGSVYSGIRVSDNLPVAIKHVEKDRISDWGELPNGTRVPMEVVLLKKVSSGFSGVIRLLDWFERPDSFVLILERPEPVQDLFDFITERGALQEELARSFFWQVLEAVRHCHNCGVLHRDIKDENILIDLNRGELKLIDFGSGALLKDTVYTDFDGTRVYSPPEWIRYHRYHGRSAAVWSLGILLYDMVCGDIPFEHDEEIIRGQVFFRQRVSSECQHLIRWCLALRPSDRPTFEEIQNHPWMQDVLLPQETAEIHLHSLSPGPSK
Sequence of Serine/threonine-protein kinase PLK1 (P53350 whole entry): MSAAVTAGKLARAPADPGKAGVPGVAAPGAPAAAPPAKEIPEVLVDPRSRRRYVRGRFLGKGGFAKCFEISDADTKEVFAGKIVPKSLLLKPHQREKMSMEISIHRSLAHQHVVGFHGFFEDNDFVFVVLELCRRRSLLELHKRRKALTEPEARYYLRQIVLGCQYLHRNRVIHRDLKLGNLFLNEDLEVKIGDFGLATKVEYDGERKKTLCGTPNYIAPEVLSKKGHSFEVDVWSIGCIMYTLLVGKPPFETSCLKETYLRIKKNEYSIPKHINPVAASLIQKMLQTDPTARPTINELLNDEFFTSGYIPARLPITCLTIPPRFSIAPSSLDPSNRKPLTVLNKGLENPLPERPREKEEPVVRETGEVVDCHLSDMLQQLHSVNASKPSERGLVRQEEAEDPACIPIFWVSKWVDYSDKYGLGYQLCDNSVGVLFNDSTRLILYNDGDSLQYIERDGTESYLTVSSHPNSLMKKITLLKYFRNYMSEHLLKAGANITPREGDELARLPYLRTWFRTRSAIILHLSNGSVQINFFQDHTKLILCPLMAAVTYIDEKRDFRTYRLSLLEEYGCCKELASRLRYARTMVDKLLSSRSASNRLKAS
Sequence of MAP kinase-activated protein kinase 2 (P49137 whole entry): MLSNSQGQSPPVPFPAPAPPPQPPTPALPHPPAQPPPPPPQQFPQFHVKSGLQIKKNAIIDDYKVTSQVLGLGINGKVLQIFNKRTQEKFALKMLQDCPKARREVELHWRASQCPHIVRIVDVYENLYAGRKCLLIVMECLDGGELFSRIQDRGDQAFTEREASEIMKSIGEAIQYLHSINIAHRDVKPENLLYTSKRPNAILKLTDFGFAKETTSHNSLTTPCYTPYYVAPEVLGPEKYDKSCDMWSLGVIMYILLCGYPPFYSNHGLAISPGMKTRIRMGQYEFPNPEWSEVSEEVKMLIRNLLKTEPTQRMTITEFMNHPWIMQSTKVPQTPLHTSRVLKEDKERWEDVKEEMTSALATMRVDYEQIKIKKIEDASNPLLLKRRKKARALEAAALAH
Sequence of Serine/threonine-protein kinase Chk2 (O96017 whole entry): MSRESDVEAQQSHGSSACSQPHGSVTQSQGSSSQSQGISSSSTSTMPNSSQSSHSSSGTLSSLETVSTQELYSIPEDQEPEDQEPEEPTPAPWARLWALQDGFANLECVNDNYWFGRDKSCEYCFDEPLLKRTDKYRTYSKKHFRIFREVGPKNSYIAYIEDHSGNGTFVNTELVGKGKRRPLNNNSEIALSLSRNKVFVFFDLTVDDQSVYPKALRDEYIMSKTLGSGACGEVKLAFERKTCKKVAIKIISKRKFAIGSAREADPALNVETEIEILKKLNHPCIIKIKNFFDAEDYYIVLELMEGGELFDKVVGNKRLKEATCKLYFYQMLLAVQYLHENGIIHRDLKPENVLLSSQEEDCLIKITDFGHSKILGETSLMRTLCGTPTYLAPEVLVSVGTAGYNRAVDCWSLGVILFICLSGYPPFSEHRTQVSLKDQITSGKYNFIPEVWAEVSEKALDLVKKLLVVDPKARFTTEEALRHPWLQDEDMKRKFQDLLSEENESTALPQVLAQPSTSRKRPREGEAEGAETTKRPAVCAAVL
Sequence of Cyclin-dependent kinase 1 (P06493 whole entry): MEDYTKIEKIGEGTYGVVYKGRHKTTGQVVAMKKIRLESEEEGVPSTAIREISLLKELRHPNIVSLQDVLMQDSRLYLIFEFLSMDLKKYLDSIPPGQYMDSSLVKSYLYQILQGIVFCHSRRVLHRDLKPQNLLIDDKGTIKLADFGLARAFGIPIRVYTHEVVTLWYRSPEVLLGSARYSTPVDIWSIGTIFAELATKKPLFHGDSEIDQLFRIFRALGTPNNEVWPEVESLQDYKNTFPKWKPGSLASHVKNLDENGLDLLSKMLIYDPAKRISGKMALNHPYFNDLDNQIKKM
Sequence of Protein kinase C delta type (Q05655 whole entry): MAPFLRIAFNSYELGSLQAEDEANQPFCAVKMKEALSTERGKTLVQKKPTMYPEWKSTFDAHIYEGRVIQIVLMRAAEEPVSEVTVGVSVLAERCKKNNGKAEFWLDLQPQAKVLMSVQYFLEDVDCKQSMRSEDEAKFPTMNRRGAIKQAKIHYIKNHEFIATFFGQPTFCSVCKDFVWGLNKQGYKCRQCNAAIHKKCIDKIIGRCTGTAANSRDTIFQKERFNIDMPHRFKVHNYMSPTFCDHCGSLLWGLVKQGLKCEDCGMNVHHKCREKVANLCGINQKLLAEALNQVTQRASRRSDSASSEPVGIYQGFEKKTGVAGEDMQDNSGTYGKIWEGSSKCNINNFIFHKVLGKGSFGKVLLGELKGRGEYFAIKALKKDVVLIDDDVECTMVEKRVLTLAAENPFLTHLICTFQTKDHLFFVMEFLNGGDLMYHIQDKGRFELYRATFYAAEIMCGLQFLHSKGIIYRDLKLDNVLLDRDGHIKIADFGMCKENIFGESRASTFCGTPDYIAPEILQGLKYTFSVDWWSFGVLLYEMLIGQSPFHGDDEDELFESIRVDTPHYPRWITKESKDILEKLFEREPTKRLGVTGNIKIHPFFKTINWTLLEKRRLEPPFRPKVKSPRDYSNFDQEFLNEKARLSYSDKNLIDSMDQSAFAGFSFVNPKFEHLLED
Sequence of MAP/microtubule affinity-regulating kinase 3 (P27448 whole entry): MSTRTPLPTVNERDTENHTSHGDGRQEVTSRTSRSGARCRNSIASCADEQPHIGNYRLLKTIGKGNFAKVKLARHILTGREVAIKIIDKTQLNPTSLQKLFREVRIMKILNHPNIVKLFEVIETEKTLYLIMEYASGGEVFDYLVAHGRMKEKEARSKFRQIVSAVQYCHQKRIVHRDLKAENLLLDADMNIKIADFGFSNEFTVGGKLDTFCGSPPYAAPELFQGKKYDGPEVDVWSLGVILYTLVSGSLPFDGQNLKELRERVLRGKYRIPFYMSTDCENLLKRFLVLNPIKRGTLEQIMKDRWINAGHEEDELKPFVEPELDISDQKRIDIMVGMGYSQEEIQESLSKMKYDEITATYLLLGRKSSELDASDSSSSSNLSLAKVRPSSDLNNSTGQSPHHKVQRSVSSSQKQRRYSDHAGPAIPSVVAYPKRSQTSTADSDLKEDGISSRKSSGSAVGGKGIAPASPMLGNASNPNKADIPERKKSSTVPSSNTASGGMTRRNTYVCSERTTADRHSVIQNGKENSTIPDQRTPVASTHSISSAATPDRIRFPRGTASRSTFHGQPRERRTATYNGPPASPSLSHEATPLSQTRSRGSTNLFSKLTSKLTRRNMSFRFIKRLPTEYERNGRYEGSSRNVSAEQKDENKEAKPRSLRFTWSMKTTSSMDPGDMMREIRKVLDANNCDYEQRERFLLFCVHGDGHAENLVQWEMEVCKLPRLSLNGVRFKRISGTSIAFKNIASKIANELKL
T3 sequence (Q9HC16 whole entry): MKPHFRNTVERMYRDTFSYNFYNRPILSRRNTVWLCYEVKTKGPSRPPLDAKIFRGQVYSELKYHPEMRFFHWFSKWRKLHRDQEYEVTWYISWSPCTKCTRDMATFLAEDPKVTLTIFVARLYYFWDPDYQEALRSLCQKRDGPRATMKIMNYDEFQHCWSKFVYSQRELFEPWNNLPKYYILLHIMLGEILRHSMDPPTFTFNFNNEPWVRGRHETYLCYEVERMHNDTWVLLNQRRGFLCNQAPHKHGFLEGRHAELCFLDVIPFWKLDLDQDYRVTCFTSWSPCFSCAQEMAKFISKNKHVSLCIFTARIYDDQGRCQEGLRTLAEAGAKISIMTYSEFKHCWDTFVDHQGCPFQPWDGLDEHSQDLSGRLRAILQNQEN
Sequence of Mast/stem cell growth factor receptor Kit (P10721 whole entry): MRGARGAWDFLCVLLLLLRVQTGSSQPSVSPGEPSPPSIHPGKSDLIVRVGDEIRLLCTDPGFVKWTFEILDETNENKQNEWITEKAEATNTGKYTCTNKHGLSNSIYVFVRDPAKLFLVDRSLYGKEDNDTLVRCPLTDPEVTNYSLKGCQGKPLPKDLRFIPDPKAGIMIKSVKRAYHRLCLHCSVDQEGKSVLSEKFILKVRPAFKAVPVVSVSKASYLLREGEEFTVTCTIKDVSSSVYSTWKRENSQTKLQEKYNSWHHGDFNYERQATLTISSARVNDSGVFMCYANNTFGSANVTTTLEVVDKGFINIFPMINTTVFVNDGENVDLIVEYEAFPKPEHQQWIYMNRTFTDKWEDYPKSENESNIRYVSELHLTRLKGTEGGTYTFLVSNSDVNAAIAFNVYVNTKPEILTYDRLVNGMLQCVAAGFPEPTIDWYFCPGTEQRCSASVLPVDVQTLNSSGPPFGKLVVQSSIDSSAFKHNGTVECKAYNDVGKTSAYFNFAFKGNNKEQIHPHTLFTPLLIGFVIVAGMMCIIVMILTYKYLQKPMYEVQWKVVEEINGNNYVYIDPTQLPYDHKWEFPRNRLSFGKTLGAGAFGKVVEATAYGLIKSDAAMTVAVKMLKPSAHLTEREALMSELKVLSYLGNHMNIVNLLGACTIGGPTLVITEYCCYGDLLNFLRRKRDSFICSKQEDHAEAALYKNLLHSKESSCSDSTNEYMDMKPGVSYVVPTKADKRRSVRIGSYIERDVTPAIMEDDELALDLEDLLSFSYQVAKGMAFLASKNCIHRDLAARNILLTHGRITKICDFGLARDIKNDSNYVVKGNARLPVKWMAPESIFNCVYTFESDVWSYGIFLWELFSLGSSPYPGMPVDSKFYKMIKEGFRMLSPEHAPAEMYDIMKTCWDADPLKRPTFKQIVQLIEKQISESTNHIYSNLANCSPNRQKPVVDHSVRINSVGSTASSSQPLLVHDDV

Ki (LIM domain kinase 1): 2.51 µM (active) | Ki [8]: 5.01 µM (active)
Compound: COc1ccccc1NC(=O)c1cnn2c(-c3ccccc3)ccnc12

Ki [9]: > 10 µM (inactive) | Ki [10]: > 7.94 µM (inactive) | Ki [11]: > 6.31 µM (inactive) | Ki [12]: 501 nM (active) | Ki [13]: > 7.94 µM (inactive) | Ki (Ephrin type-A receptor 2): > 7.94 µM (inactive) | Ki [14]: > 7.94 µM (inactive) | Ki [15]: > 5.01 µM (inactive) | Ki [16]: > 7.94 µM (inactive) | Ki [17]: > 10 µM (inactive) | Ki [18]: 1 µM (active) | Ki [19]: > 7.94 µM (inactive) | Ki [20]: > 7.94 µM (inactive) | Ki (Aurora kinase A): > 6.31 µM (inactive) | Ki [21]: 6.31 µM (active) | Ki [22]: > 10 µM (inactive) | Ki [23]: > 7.94 µM (inactive) | Ki [24]: 1.58 µM (active) | Ki [25]: > 7.94 µM (inactive) | Ki [26]: > 6.31 µM (inactive) | Ki [27]: 7.94 µM (active) | Ki [28]: 5.01 µM (active) | Ki [29]: > 7.94 µM (inactive) | Ki [30]: > 7.94 µM (inactive) | Ki [8]: > 10 µM (inactive)
Compound: COc1ccc(OC)c(CNC(=O)c2cc(N)c(C#N)c(OC(C)C)n2)c1

AC50 [31]: 19.5 µM (active)
Compound: Cc1noc(C)c1S(=O)(=O)Nc1ccc2c(c1)CC(=O)N([C@@H](C)CO)C[C@H](C)[C@H](CN(C)S(=O)(=O)c1ccc(F)cc1)O2

Ki (Aurora kinase B): 316 nM (active) | Ki [32]: 3.98 µM (active)
Compound: COc1cc(Nc2ncnc(Nc3cc[nH]n3)n2)cc(OC)c1OC

EC50 [33]: > 25 µM (inactive) | EC50 [34]: 3.65 µM (active) | EC50 [35]: 144 nM (active) | EC50 [36]: 720 nM (active)
Compound: C/N=C1/S/C(=C/c2cc(C)n(Cc3ccccc3)c2C)C(=O)N1C

Ki [37]: 1.58 µM (active) | Ki [38]: 6.31 µM (active)
Compound: CC(=O)Nc1cc(N)c(C#N)c(OCC(C)C)n1

The remaining lines, values behind:

Compound: CC(=O)Nc1cccc(OCC(=O)NC(C)c2ccc3ccccc3c2)c1 (stereo not drawn)
IC50 [1]: 9.01 µM (active) | IC50 [2]: > 49.7 µM (inactive) | IC50 (Orexin receptor type 2 [3]): > 50 µM (inactive) | IC50 [4]: 623 nM (active) | IC50 (CHO-K1): > 66.2 µM (inactive) | IC50 (Orexin receptor type 2 [5]): 30 µM (inactive)

Compound: C[C@@H]1CN([C@@H](C)CO)C(=O)c2cc(NC(=O)Nc3ccccc3)ccc2O[C@@H](C)CCCCO[C@H]1CN(C)S(=O)(=O)c1ccccc1F
AC50 [6]: 641 nM (active) | AC50 [7]: 924 nM (active)

Compound: COc1cc(C=Nn2c(S)nnc2-c2[nH]nc3c2CCC3)ccc1O
IC50 [39]: 732 nM (active) | IC50 [40]: > 99 µM (inactive) | IC50 [41]: > 99 µM (inactive) | IC50 [42]: 808 nM (active)

Compound: O=[N+]([O-])c1cc(/C=N\Nc2ccccn2)ccc1Cl
EC50 [43]: 9.33 µM (active)

Compound: c1ccc(-c2n[nH]cc2-c2ccncc2)cc1
Ki [9]: 1.26 µM (active) | Ki [10]: > 20 µM (inactive) | Ki [11]: > 15.8 µM (inactive) | Ki [12]: 2510 nM (active) | Ki [13]: 0.794 µM (active) | Ki (Ephrin type-A receptor 2): > 20 µM (inactive) | Ki [14]: > 20 µM (inactive) | Ki [44]: 1 µM (active) | Ki [15]: > 12.6 µM (inactive) | Ki [17]: > 25.1 µM (inactive) | Ki [45]: > 10 µM (inactive) | Ki [46]: 2 µM (active) | Ki [47]: > 3.98 µM (inactive) | Ki [18]: > 3.16 µM (inactive) | Ki [19]: > 20 µM (inactive) | Ki [20]: > 20 µM (inactive) | Ki (Aurora kinase A): 6.31 µM (active) | Ki [48]: > 7.94 µM (inactive) | Ki [21]: 7.94 µM (active) | Ki [22]: 10 µM (active) | Ki [24]: 0.251 µM (active) | Ki [25]: 10 µM (active) | Ki [49]: > 5.01 µM (inactive) | Ki [26]: 7.94 µM (active) | Ki [27]: > 25.1 µM (inactive) | Ki [50]: 10 µM (active) | Ki [29]: > 20 µM (inactive) | Ki [30]: 2.51 µM (active) | Ki [8]: 20 µM (active)
